Tests used:
[1] = molecular target: T1, human alpha-2A-adrenoceptor (Homo sapiens, UniProt P08913); assay: Human alpha-2-adrenoceptor binding affinity, 3H-rauwolscine competition binding; conditions: Mean ± SEM, membranes of Shionogi S115 cells transfected with human α2A
T1 construct: expressed in transfected cells
T1 sequence (P08913 1-465): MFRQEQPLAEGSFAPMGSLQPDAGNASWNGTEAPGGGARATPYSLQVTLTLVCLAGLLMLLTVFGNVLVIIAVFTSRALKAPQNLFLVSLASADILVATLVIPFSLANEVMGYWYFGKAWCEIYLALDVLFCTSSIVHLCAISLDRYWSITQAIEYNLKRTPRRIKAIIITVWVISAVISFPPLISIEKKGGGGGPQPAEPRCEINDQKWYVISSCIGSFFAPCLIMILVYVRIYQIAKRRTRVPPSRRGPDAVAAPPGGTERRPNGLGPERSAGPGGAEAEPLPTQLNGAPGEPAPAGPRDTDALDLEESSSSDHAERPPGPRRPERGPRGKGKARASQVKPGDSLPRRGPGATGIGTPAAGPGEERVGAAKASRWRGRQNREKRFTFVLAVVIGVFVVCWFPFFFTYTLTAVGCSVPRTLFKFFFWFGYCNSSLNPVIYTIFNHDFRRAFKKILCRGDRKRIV
Experimental: (§1) Results expressed in the form of “>” means that no numerical values for Ki's could be established due to lack of displacement or due to incomplete competition curves.
(§2) Human Alpha-2-adrenoceptor Binding Affinity
(§3) After 30 min at room temperature, incubations were terminated by rapid vacuum filtration through GF/B glass fiber filter and three 5 ml washes with ice-cold incubation buffer. The filters were then dried, impregnated with scintillate and their radioactivity was measured by scintillation counting. The analysis of the experiments was carried out by non-linear least square curve fitting. Experimentally determined IC50 values were converted to Ki's by making use of the Cheng-Prusoff equation (Cheng and Prusoff, 1973). Experiments were repeated a minimum of three times. to the incubation mixture. After an additional 60 min at room temperature, the incubation was terminated by rapid vacuum filtration through glass fibre filter. Filters were washed three times with 5 ml ice cold wash buffer (20 mM Tris, 5 mM MgCl2, 1 mM EDTA pH 7.4 at room temperature), dried and counted for radioactivity in a scintiallation counter. Analysis of experiments was carried out by non-linear least square fitting. Results are based on a minimum of three experiments.

[2] = molecular target: T2, human alpha-2B-adrenoceptor (Homo sapiens, UniProt P18089); assay: as above; conditions: Mean ± SEM, membranes of Shionogi S115 cells transfected with human α2B
T2 construct: expressed in transfected cells
T2 sequence (P18089 1-450): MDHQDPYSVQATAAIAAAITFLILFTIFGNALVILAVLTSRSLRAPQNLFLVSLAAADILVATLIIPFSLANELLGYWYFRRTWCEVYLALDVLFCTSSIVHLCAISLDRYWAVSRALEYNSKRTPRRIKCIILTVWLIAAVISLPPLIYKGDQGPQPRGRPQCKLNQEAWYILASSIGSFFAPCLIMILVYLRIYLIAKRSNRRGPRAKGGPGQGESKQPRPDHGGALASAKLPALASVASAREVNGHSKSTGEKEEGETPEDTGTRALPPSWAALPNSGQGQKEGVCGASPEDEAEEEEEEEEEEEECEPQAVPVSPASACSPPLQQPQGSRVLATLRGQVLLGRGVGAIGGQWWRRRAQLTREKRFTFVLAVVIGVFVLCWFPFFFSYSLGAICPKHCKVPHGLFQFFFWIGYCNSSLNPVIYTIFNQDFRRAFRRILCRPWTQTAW
Experimental: as §1, §2
as §3, with “Experimentally determined IC50 values were converted to Ki's by making use of the Cheng-Prusoff equation (Cheng and Prusoff, 1973).” left out

[3] = molecular target: T3, human alpha-2C-adrenoceptor (Homo sapiens, UniProt P18825); assay: as above; conditions: Mean ± SEM, membranes of Shionogi S115 cells transfected with human α2C
T3 construct: expressed in transfected cells
T3 sequence (P18825 1-462): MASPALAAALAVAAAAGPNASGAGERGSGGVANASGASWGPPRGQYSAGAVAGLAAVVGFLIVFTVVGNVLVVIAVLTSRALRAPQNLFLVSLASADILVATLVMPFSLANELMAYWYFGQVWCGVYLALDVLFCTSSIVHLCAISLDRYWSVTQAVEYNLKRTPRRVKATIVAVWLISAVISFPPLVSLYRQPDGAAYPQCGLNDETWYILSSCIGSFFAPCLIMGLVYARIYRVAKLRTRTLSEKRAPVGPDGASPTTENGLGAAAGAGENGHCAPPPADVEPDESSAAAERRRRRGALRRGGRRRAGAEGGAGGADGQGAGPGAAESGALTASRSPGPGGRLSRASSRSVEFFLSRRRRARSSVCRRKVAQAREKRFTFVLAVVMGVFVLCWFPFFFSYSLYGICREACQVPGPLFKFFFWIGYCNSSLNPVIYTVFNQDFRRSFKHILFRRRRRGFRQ
Experimental: as §1, §2
as §3, with “Experimentally determined IC50 values were converted to Ki's by making use of the Cheng-Prusoff equation (Cheng and Prusoff, 1973).” left out

[4] = molecular target: T1, human alpha-2A-adrenoceptor; assay: Antagonist activity: inhibition of epinephrine-stimulated 35S-GTPγS binding; assay type: biochemical; conditions: Mean ± SEM; CHO cell membranes, human α2A; 5 μM epinephrine; read-out: KB alpha-2A antagonist effect
Experimental: (§4) Antagonist Activity on Human Alpha-2-adrenoceptor Subtypes
Membranes (2-6 μg of protein per sample) and 12 concentrations of test compound were preincubated for 30 min with a fixed concentration fo epinephrine (5 μM for α2A, 15 μM for α2B, 5 μM for α2C) in 50 mM Tris, 5 mM MgCl2, 150 mM NaCl, 1 mM DTT, 1 mM EDTA, 10 μM GDP, 30 μM ascorbic acid, pH 7.4 at room temperature. Binding of radiolabel was started by the addition of trace amounts of ^35S-GTPγS (0.08-0.15 nM, specific activity 1250 Ci/mmol)
as §3

[5] = molecular target: T2, human alpha-2B-adrenoceptor; assay: as above; assay type: biochemical; conditions: Mean ± SEM; CHO cell membranes, human α2B; 15 μM epinephrine; read-out: KB alpha-2B antagonist effect
Experimental: as §4
as §3, with “Experimentally determined IC50 values were converted to Ki's by making use of the Cheng-Prusoff equation (Cheng and Prusoff, 1973).” left out

[6] = molecular target: T3, human alpha-2C-adrenoceptor; assay: as above; assay type: biochemical; conditions: Mean ± SEM; CHO cell membranes, human α2C; 5 μM epinephrine; read-out: KB alpha-2C antagonist effect
Experimental: as §4
as §3, with “Experimentally determined IC50 values were converted to Ki's by making use of the Cheng-Prusoff equation (Cheng and Prusoff, 1973).” left out

| SMILES | Ki [1] | Ki [2] | Ki [3] | Kb [4] | Kb [5] | Kb [6] |
| --- | --- | --- | --- | --- | --- | --- |
| Cc1cc(C)nc(NS(=O)(=O)c2ccc(NCc3nc4ccccc4n3CC(C)C)cc2)n1 [Compound A, N-(4,6-Dimethylpyrimidin-2-yl)-4-[(1-isobutyl-1H-benzimidazol-2-ylmethyl)-amino]-benzenesulfonamide] | > 13 µM | 0.16 ± 0.02 µM | > 30 µM |  |  |  |
| Cc1cc(C)nc(NS(=O)(=O)c2ccc(NCc3ccccc3C)cc2)n1 [Compound B, N-(4,6-Dimethylpyrimidin-2-yl)-4-(2-methylbenzylamino)-benzenesulfonamide] | > 4.5 µM | 0.034 ± 0.002 µM | > 10 µM | 14.5 ± 3.6 µM | 0.075 ± 0.009 µM | 5.7 ± 0.7 µM |
| Cc1cc(C)nc(NS(=O)(=O)c2ccc(NCc3c(Cl)cccc3Cl)cc2)n1 [Compound C, 4-(2,6Dichlorobenzylamino)-N-(4,6-dimethylpyrimidin-2-yl)-benzenesulfonamide] | 2 ± 0.4 µM |  | > 10 µM | 5.4 ± 1.4 µM |  | 6.3 ± 1.4 µM |
| Cc1cc(C)nc(NS(=O)(=O)c2ccc(NCc3ccc4ccccc4c3)cc2)n1 [Compound D, N-(4,6-Dimethylpyrimidin-2-yl)-4-[(naphthalen-2-ylmethyl)-amino]-benzenesulfonamide] | > 10 µM | 0.44 ± 0.07 µM | > 10 µM |  |  |  |
| COc1cccc(CNc2ccc(S(=O)(=O)Nc3nc(C)cc(C)n3)cc2)c1 [Compound E, N-(4,6-Dimethylpyrimidin-2yl-)4(3-methoxybenzylamino)-benzenesulfonamide] | > 5.1 µM | 0.02 ± 0.004 µM | > 10 µM | 7.9 ± 3.1 µM | 0.029 ± 0.005 µM | 7.3 ± 1.1 µM |
| CCn1cc(CNc2ccc(S(=O)(=O)Nc3nc(C)cc(C)n3)cc2)c2ccccc21 [Compound F, N-(4,6-Dimethylpyrimidin-2-yl)-4-[(1-ethyl-1H-indol-3-ylmethyl)-amino]-benzenesulfonamide] | > 4.3 µM | 0.043 ± 0.007 µM | > 10 µM | 8.7 ± 1.1 µM | 0.24 ± 0.06 µM | 12 ± 2 µM |
| COc1ccccc1CCNc1ccc(S(=O)(=O)Nc2nc(C)cc(C)n2)cc1 [Compound G, N-(4,6-Dimethylpyrimidin-2-yl)-4-[2-(2-methoxyphenyl)-ethylamino]-benzenesulfonamide] | 2.2 ± 0.6 µM | 0.032 ± 0.005 µM | > 10 µM | 3.2 ± 0.5 µM | 0.086 ± 0.064 µM | 4.7 ± 1.8 µM |
| Cc1cc(C)nc(NS(=O)(=O)c2ccc(NC(c3ccccc3)c3ccccc3)cc2)n1 [Compound H, 4-(Benzhydrylamino)-N-(4,6-dimethylpyrimidin-2-yl)-benzenesulfonamide] | > 30 µM | 8 ± 0.5 µM | > 30 µM |  |  |  |
